Laboratory results: paper PMC7403138 (Clinical Pharmacokinetics, 2020)

Assay: Population pharmacokinetic analysis
Assay type: in vivo, human

SMILES	FRator-oOH (base PK model) [%]	between-subject variability on CLator (base PK model, CV%) [%]	between-subject variability on FRator-oOH (base PK model, CV%) [%]	between-subject variability on Vcator=Vcmet (base PK model, CV%) [%]	decrease in logit(FRator-oOH) (coadministration of boosted ARVs) [%]	central volume of distribution of atorvastatin and o-OH-atorvastatin (Vcator=Vcmet) (base PK model) [L]	metabolite clearance (CLo-OH-ator) (base PK model) [L/h]	o-OH-atorvastatin formed slower (presence vs absence of boosted ARVs, full dataset) [%]
CC(C)c1c(C(=O)Nc2ccccc2)c(-c2ccccc2)c(-c2ccc(F)cc2)n1CC[C@@H](O)C[C@@H](O)CC(=O)O [atorvastatin]	11	94	131	137	225			
CC(C)c1c(C(=O)Nc2ccccc2O)c(-c2ccccc2)c(-c2ccc(F)cc2)n1CC[C@@H](O)C[C@@H](O)CC(=O)O [o-OH-atorvastatin, ortho-hydroxy atorvastatin]						3170	118	88
